Measurements from PubChem BioAssay AID276 (DTP/NCI, 2004).
Values joined by “and” are separate entries in the source; they are usually repeats but may differ in a detail not shown here. Equal entries are not always repeated. Toxic doses and inconclusive results are not listed.

Tested on: B6C3F1 mice, Lewis lung carcinoma iv, survival T/C
Assay: NCI In Vivo Anticancer Drug Screen. Data for tumor model Lewis Lung Carcinoma (intravenous) in B6C3F1 mice
Settings: endpoint: median survival time, schedule: Q01DX009 (ip), higher = longer survival
Summary of the method: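 Antitumor activity is assessed in tumor-bearing mice by comparing survival after compound treatment against vehicle-treated controls, reported as a T/C ratio.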

[1] = dose: 3.12 mg/kg/injection, vehicle: water
[2] = dose: 6.25 mg/kg/injection, vehicle: water
[3] = dose: 12.5 mg/kg/injection, vehicle: water
[4] = dose: 25.0 mg/kg/injection, vehicle: water
[5] = dose: 50.0 mg/kg/injection, vehicle: water
[6] = dose: 50.0 mg/kg/injection, vehicle: suspension in saline
[7] = dose: 100.0 mg/kg/injection, vehicle: saline
[8] = dose: 100.0 mg/kg/injection, vehicle: suspension in saline
[9] = dose: 200.0 mg/kg/injection, vehicle: saline
[10] = dose: 200.0 mg/kg/injection, vehicle: suspension in saline
[11] = dose: 400.0 mg/kg/injection, vehicle: saline
[12] = dose: 400.0 mg/kg/injection, vehicle: suspension in saline
[13] = dose: 6.25 mg/kg/injection, vehicle: saline with Tween-80
[14] = dose: 12.5 mg/kg/injection, vehicle: saline with Tween-80
[15] = dose: 25.0 mg/kg/injection, vehicle: saline with Tween-80
[16] = dose: 50.0 mg/kg/injection, vehicle: saline with Tween-80
[17] = dose: 100.0 mg/kg/injection, vehicle: saline with Tween-80
[18] = dose: 200.0 mg/kg/injection, vehicle: saline with Tween-80
[19] = dose: 400.0 mg/kg/injection, vehicle: saline with Tween-80

Q: Which T/C [1] does the source give for Cn1c(=O)[nH]c2nncnc2c1=O here?
A: Its T/C is 97 % of control.

Q: And the T/C [2]?
A: The T/C was 105 % of control.

Q: What about the T/C [3] of the same compound?
A: The T/C was 102 % of control.

Q: And the T/C [4]?
A: The T/C was 94 % of control.

Q: And the T/C [5]?
A: The T/C was 90 % of control.

Q: Which T/C (dose: 0.37 mg/kg/injection, vehicle: saline with Tween-80) does the source give for CC[C@@]1(O)C(=O)OCc2c1cc1n(c2=O)Cc2cc3ccccc3nc2-1 here?
A: The T/C was 102 % of control.

Q: What about the T/C (dose: 0.75 mg/kg/injection, vehicle: saline with Tween-80) of the same compound?
A: Its T/C is 105 % of control.

Q: And the T/C (dose: 1.5 mg/kg/injection, vehicle: saline with Tween-80)?
A: The T/C was 122 % of control.

Q: For COc1cc2oc(=O)ccc2cc1[C@@H]1OC(=O)C2(C)O[C@@H]12 (some centres undefined), which T/C (dose: 0.16 mg/kg/injection, vehicle: water) is on record?
A: Its T/C is 106 % of control.

Q: And the T/C (dose: 0.31 mg/kg/injection, vehicle: water)?
A: The T/C was 94 % of control and 96 % of control.

Q: And the T/C (dose: 0.62 mg/kg/injection, vehicle: water)?
A: The T/C was 99 % of control and 112 % of control.

Q: And the T/C (dose: 1.25 mg/kg/injection, vehicle: water)?
A: The T/C was 91 % of control and 100 % of control.

Q: And the T/C (dose: 2.5 mg/kg/injection, vehicle: water)?
A: Its T/C is 95 % of control and 100 % of control.

Q: What about the T/C (dose: 5.0 mg/kg/injection, vehicle: water) of the same compound?
A: The T/C was 97 % of control and 98 % of control.

Q: What about the T/C (dose: 10.0 mg/kg/injection, vehicle: water) of the same compound?
A: Its T/C is 94 % of control.

Q: What does the source list for O=C(NO)c1ccc(O)c(O)c1?
A: T/C (dose: 25.0 mg/kg/injection, vehicle: saline): 100 % of control; T/C (dose: 50.0 mg/kg/injection, vehicle: saline): 98 % of control; T/C [6]: 98 % of control; T/C [7]: 101 % of control; T/C [8]: 110 % of control; T/C [9]: 100 % of control; T/C [10]: 118 % of control; T/C [11]: 158 % of control; T/C [12]: 124 % of control

Q: Which T/C (dose: 50.0 mg/kg/injection, vehicle: DMSO) does the source give for O=C(CN1CCOCC1)Nc1nc(-c2ccc(Cl)cc2)cs1 here?
A: The T/C was 91 % of control.

Q: What about the T/C (dose: 100.0 mg/kg/injection, vehicle: DMSO) of the same compound?
A: The T/C was 92 % of control.

Q: And the T/C (dose: 200.0 mg/kg/injection, vehicle: DMSO)?
A: The T/C was 103 % of control.

Q: And the T/C (dose: 400.0 mg/kg/injection, vehicle: DMSO)?
A: The T/C was 100 % of control.

Q: And the T/C (dose: 800.0 mg/kg/injection, vehicle: DMSO)?
A: Its T/C is 95 % of control.

Q: Which results are given for COC1CC(C)C(OC)C2=CC(=O)C=C(NC(=O)/C(C)=C/C=C\C(C)C(OC(N)=O)/C(C)=C\C(C)C1OC)C2=O (centres undefined)?
A: T/C (dose: 5.0 mg/kg/injection, vehicle: saline + Tween-80 + alcohol): 99 % of control; T/C (dose: 10.0 mg/kg/injection, vehicle: saline + Tween-80 + alcohol): 112 % of control

Q: Which T/C (dose: 0.39 mg/kg/injection, vehicle: saline with Tween-80) does the source give for CC(=O)Nc1ccc(Nc2ccc(C(=C3C=CC(=[N+](C)CCC#N)C=C3)c3ccc(N(C)CCC#N)cc3)cc2)cc1 here?
A: Its T/C is 102 % of control.

Q: What about the T/C (dose: 0.78 mg/kg/injection, vehicle: saline with Tween-80) of the same compound?
A: The T/C was 102 % of control.

Q: And the T/C (dose: 1.56 mg/kg/injection, vehicle: saline with Tween-80)?
A: The T/C was 98 % of control.

Q: And the T/C (dose: 3.12 mg/kg/injection, vehicle: saline with Tween-80)?
A: The T/C was 104 % of control.

Q: What about the T/C [13] of the same compound?
A: The T/C was 97 % of control.

Q: And the T/C [14]?
A: The T/C was 105 % of control.

Q: For O=C(CCCCCCC(=O)ON1C(=O)CCC1=O)ON1C(=O)CCC1=O, which T/C [15] is on record?
A: The T/C was 94 % of control.

Q: What about the T/C [16] of the same compound?
A: The T/C was 94 % of control.

Q: And the T/C [17]?
A: The T/C was 93 % of control.

Q: What does the source list for COc1cc2c(c(OC)c1OC)-c1ccc(OC)c(=O)cc1[C@@H](NC(C)=O)CC2?
A: T/C (dose: 0.06 mg/kg/injection, vehicle: saline): 108 % of control; T/C (dose: 0.12 mg/kg/injection, vehicle: saline): 92 % of control; T/C (dose: 0.19 mg/kg/injection, vehicle: saline): 99 % of control; T/C (dose: 0.25 mg/kg/injection, vehicle: saline): 100 % of control; T/C (dose: 0.39 mg/kg/injection, vehicle: saline): 104 % of control; T/C (dose: 0.5 mg/kg/injection, vehicle: saline): 93 % of control; T/C (dose: 0.78 mg/kg/injection, vehicle: saline): 104 % of control; T/C (dose: 1.0 mg/kg/injection, vehicle: saline): 100 % of control; T/C (dose: 2.0 mg/kg/injection, vehicle: saline): 112 % of control

Q: Which results are given for CCOC(=O)c1cn(C)c2c1C(O)=C(C(=O)OC)CC(=O)N2?
A: T/C [15]: 97 % of control; T/C [16]: 104 % of control; T/C [17]: 113 % of control; T/C [18]: 99 % of control; T/C [19]: 105 % of control

Q: How did the T/C [1] turn out when NC(=O)c1csc(C2O[C@@H](COP(=O)(O)OP(=O)(O)OC[C@H]3OC(n4cnc5c(N)ncnc54)[C@H](O)[C@@H]3O)[C@H](O)[C@@H]2O)n1 (some centres undefined) was run?
A: Its T/C is 101 % of control.

Q: What about the T/C [2] of the same compound?
A: The T/C was 98 % of control.

Q: What about the T/C [3] of the same compound?
A: The T/C was 104 % of control.

Q: And the T/C [4]?
A: Its T/C is 120 % of control.

Q: And the T/C [5]?
A: The T/C was 209 % of control.

Q: What does the source list for CN(C)CCN1C(=O)c2cccc3cc(N)cc(c23)C1=O?
A: T/C (dose: 1.0 mg/kg/injection, vehicle: saline with Tween-80): 115 % of control; T/C (dose: 2.0 mg/kg/injection, vehicle: saline with Tween-80): 106 % of control; T/C (dose: 4.0 mg/kg/injection, vehicle: saline with Tween-80): 111 % of control; T/C (dose: 8.0 mg/kg/injection, vehicle: saline with Tween-80): 119 % of control

Q: Which T/C [7] does the source give for Nc1n[nH]c(N)n1 here?
A: Its T/C is 109 % of control.

Q: And the T/C [9]?
A: The T/C was 109 % of control.

Q: What about the T/C [11] of the same compound?
A: The T/C was 106 % of control.

Q: What about the T/C (dose: 800.0 mg/kg/injection, vehicle: saline) of the same compound?
A: Its T/C is 115 % of control.

Q: With O=Cc1c(O)c2ccccc2[nH]c1=O as the compound, how does the T/C [13] read?
A: The T/C was 107 % of control.

Q: And the T/C [14]?
A: The T/C was 105 % of control.

Q: And the T/C [15]?
A: The T/C was 113 % of control.

Q: What about the T/C [16] of the same compound?
A: The T/C was 107 % of control.

Q: And the T/C [17]?
A: Its T/C is 116 % of control.

Q: Which T/C [13] does the source give for O=C1[C@H]2CCC[C@H]2[C@H]2CCC[C@@H]12 here?
A: The T/C was 95 % of control.

Q: What about the T/C [14] of the same compound?
A: Its T/C is 104 % of control.

Q: And the T/C [15]?
A: The T/C was 98 % of control.

Q: What about the T/C [16] of the same compound?
A: The T/C was 95 % of control.

Q: And the T/C [17]?
A: The T/C was 91 % of control.

Q: What about the T/C [18] of the same compound?
A: Its T/C is 102 % of control.

Q: How did the T/C [15] turn out when CCC(=O)Sc1ccccc1C(=O)Nc1ccc(Cl)cc1 was run?
A: Its T/C is 94 % of control.

Q: And the T/C [16]?
A: Its T/C is 100 % of control.

Q: And the T/C [17]?
A: The T/C was 107 % of control.

Q: And the T/C [18]?
A: Its T/C is 89 % of control.

Q: What about the T/C [19] of the same compound?
A: The T/C was 105 % of control.

Q: How did the T/C [14] turn out when O=C1NC(=O)C2C3C=CC(C12)C1C2C(=O)NC(=O)C2C31 (centres undefined) was run?
A: The T/C was 96 % of control and 105 % of control.

Q: What about the T/C [15] of the same compound?
A: The T/C was 95 % of control and 102 % of control.

Q: What about the T/C [16] of the same compound?
A: The T/C was 99 % of control.

Q: What about the T/C [17] of the same compound?
A: The T/C was 96 % of control.

Q: What about the T/C [18] of the same compound?
A: Its T/C is 91 % of control.

Q: How did the T/C [14] turn out when COc1cccc(C2NC(=O)c3c(n[nH]c3N)S2)c1O (centres undefined) was run?
A: Its T/C is 114 % of control.

Q: What about the T/C [15] of the same compound?
A: Its T/C is 102 % of control.

Q: And the T/C [16]?
A: The T/C was 122 % of control.

Q: What about the T/C [17] of the same compound?
A: Its T/C is 99 % of control.

Q: And the T/C [18]?
A: Its T/C is 109 % of control.

Q: For Nc1nc(=S)c2ncn(C3CC(O)C(CO)O3)c2[nH]1 (centres undefined), which T/C (dose: 12.5 mg/kg/injection, vehicle: suspension in saline) is on record?
A: Its T/C is 113 % of control.

Q: And the T/C (dose: 25.0 mg/kg/injection, vehicle: suspension in saline)?
A: The T/C was 100 % of control.

Q: And the T/C [6]?
A: The T/C was 108 % of control.

Q: What about the T/C [8] of the same compound?
A: Its T/C is 103 % of control.

Q: What about the T/C [10] of the same compound?
A: The T/C was 95 % of control.

Q: What about the T/C [12] of the same compound?
A: The T/C was 90 % of control.
